Data on 44 compounds can be found in US7598244B2, “[1,2,4]triazolo[1,5,a]pyrimidin-2-ylurea derivative and use thereof” (Nippon Kayaku Kabushiki Kaisha, priority 2003, dated 2009).

For this test, the system named is MHC class I molecules of T1 cells (human lymphoma cell line 174×CEM.). The test is described as follows: Effect on expression of MHC class I from T1 cells (flow cytometry, MFI). As to conditions: 3 days culture. Type of test: cell-based. An outline of the steps: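 EC20 is the compound level that lowers MHC class I MFI by 20% relative to compound-free cultures. Read-out was flow cytometry after FITC W6/32 staining.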
(In general: A flow cytometer gives signals particle by particle.)

For the compound `CC(C)CCC[C@H](C)NC(=O)Nc1nc2nccc(-c3cccs3)n2n1` [Example 246], the “EC20 (concentration necessary for suppressing 20% of the expression level of MHC class I molecules)” value amounted to 0.05 µM.
Take `COc1ccc(-c2ccnc3nc(NC(=O)NC(C)CC(C)C)nn23)cc1` (racemic) [Example 235]: the “EC20 (concentration necessary for suppressing 20% of the expression level of MHC class I molecules)” value was 0.59 µM.
The value for `COc1ccc(-c2ccnc3nc(NC(=O)NCCCc4ccccc4)nn23)cc1` [Example 102] was 0.19 µM.
Regarding `COc1ccc(-c2ccnc3nc(NC(=O)N[C@H](C(=O)NCc4cccnc4)C(C)C)nn23)cc1` [Example 078], the “EC20 (concentration necessary for suppressing 20% of the expression level of MHC class I molecules)” value turned out to be 0.67 µM.
Turning to `CC(CCCC(C)(C)O)NC(=O)Nc1nc2nccc(-c3cccs3)n2n1` (centres unmarked) [Example 272, 1-(5-hydroxy-1,5-dimethylhexyl)-3-(7-thiophen-2-yl[1,2,4]triazolo[1,5-a]pyrimidin-2-yl)urea], the “EC20 (concentration necessary for suppressing 20% of the expression level of MHC class I molecules)” value is 0.069 µM.
Take `COc1cccc(-c2ccnc3nc(NC(=O)NCc4ccccc4)nn23)c1` [Example 019]: the “EC20 (concentration necessary for suppressing 20% of the expression level of MHC class I molecules)” value was found to be 1.1 µM.
The result for `O=C(Nc1nc2nccc(-c3cccc(OCc4ccccc4)c3)n2n1)NC1CCCCC1` [Example 115] reads 0.6 µM.
With `COCCN(CCOC)C(=O)[C@@H](NC(=O)Nc1nc2nccc(-c3ccc(OC)cc3)n2n1)C(C)C` [Example 097], the “EC20 (concentration necessary for suppressing 20% of the expression level of MHC class I molecules)” value came to 0.47 µM.
The result for `CCC(C)NC(=O)Nc1nc2nccc(-c3ccc(OC)cc3)n2n1` (centres unmarked) [Example 100] reads 0.32 µM; that for `CC[C@H](NC(=O)Nc1nc2nccc(-c3ccc(OC)cc3)n2n1)C(=O)Nc1ccccc1` [Example 148], 0.26 µM.
The value for `COc1ccc(-c2ccnc3nc(NC(=O)NCC(=O)Nc4ccccc4)nn23)cc1` [Example 144] was 0.46 µM; that for `COc1ccc(-c2ccnc3nc(NC(=O)N[C@H](C(=O)NCc4ccccc4)C(C)C)nn23)cc1` [Example 089] was 0.21 µM.
As for `COc1ccc(-c2ccnc3nc(NC(=O)NCc4ccc5c(c4)OCO5)nn23)cc1` [Example 215], the “EC20 (concentration necessary for suppressing 20% of the expression level of MHC class I molecules)” value is 0.15 µM.
The value for `CC(C)CCC[C@H](C)NC(=O)Nc1nc2nccc(-c3cccc(O)c3)n2n1` [Example 257] was 0.03 µM; that for `C[C@H](NC(=O)Nc1nc2nccc(-c3cccc(O)c3)n2n1)c1cccc(O)c1` [Example 267] was 0.55 µM; that for “1-(4-methoxy-1-methylbutyl)-3-[7-(4-methoxyphenyl)-[1,2,4]triazolo[1,5-a]pyrimidin-2-yl]urea [Example 333]” was 0.41 µM.
In the case of `COCCOc1ccc(-c2ccnc3nc(NC(=O)N[C@@H](C)c4cccc(OC)c4)nn23)cc1OCCOC` [Example 251], the “EC20 (concentration necessary for suppressing 20% of the expression level of MHC class I molecules)” value was determined as 0.06 µM.
Take `COc1ccc(-c2ccnc3nc(NC(=O)N[C@H](C(=O)NCC4CCCCC4)C(C)C)nn23)cc1` [Example 092]: the “EC20 (concentration necessary for suppressing 20% of the expression level of MHC class I molecules)” value worked out at 0.2 µM.
On to `COc1ccc(-c2ccnc3nc(NC(=O)N[C@H]4CCCc5ccccc54)nn23)cc1` [Example 134], for which the “EC20 (concentration necessary for suppressing 20% of the expression level of MHC class I molecules)” value stood at 0.05 µM.
Turning to `CC(C)NC(=O)Nc1nc2nccc(-c3cccc(O)c3)n2n1` [Example 084], the “EC20 (concentration necessary for suppressing 20% of the expression level of MHC class I molecules)” value is 0.42 µM.
With `COc1ccc(-c2ccnc3nc(NC(=O)NCCc4cccnc4)nn23)cc1` [Example 104], the “EC20 (concentration necessary for suppressing 20% of the expression level of MHC class I molecules)” value turned out to be 0.43 µM.
Consider `CC(C)CCC[C@H](C)NC(=O)Nc1nc2nccc(-c3ccc(OCc4ccccc4)cc3)n2n1` [Example 245, (S)-1-[7-(4-benzyloxyphenyl)-[1,2,4]triazolo[1,5-a]pyrimidin-2-yl]-3-(1,5-dmethylhexyl)urea], for which the “EC20 (concentration necessary for suppressing 20% of the expression level of MHC class I molecules)” value came out at 0.18 µM.
The value for `C[C@H](NC(=O)Nc1nc2nccc(-c3cccs3)n2n1)C(=O)OC(C)(C)C` [Example 050] was 0.33 µM.
The value for `COCC/C=C/[C@H](C)NC(=O)Nc1nc2nccc(-c3ccc(OC)cc3)n2n1` [Example 289] was 0.11 µM; that for `COc1ccc(-c2ccnc3nc(NC(=O)N[C@H](C(=O)NC4CCN(Cc5ccccc5)CC4)C(C)C)nn23)cc1` [Example 074] was 0.55 µM.
Regarding `COc1ccc(-c2ccnc3nc(NC(=O)N[C@H](C(=O)O)C(C)C)nn23)cc1` [Example 054], the “EC20 (concentration necessary for suppressing 20% of the expression level of MHC class I molecules)” value is 0.63 µM.
With `COc1cccc([C@H](C)NC(=O)Nc2nc3nccc(-c4ccc(OCc5ccccc5)cc4)n3n2)c1` [Example 222, (S)-1-[7-(4-benzyloxyphenyl)-[1,2,4]triazolo[1,5-a]pyrimidin-2-yl]-3-[1-(3-methoxyphenyl)ethyl]urea], the “EC20 (concentration necessary for suppressing 20% of the expression level of MHC class I molecules)” value was determined as 0.1 µM.
As for `COCCCC[C@H](C)NC(=O)Nc1nc2nccc(-c3ccc(OC)cc3)n2n1` [Example 233], the “EC20 (concentration necessary for suppressing 20% of the expression level of MHC class I molecules)” value is 0.04 µM.
On to `COc1cccc([C@H](C)NC(=O)Nc2nc3nccc(-c4cc(OC)c(OC)c(OC)c4)n3n2)c1` [Example 308], for which the “EC20 (concentration necessary for suppressing 20% of the expression level of MHC class I molecules)” value stood at 0.76 µM.
As to `CCCCNC(=O)[C@@H](NC(=O)Nc1nc2nccc(-c3ccc(OC)cc3)n2n1)C(C)C` [Example 091], the “EC20 (concentration necessary for suppressing 20% of the expression level of MHC class I molecules)” value is 0.21 µM.
Regarding `COc1ccc(-c2ccnc3nc(NC(=O)NC(C)c4cccc(OC(C)C)c4)nn23)cc1` (racemic) [Example 231], the “EC20 (concentration necessary for suppressing 20% of the expression level of MHC class I molecules)” value is 0.05 µM.
On to `COc1ccc(-c2ccnc3nc(NC(=O)NC(C)c4cccc(O)c4)nn23)cc1` (racemic) [Example 196], for which the “EC20 (concentration necessary for suppressing 20% of the expression level of MHC class I molecules)” value came out at 0.17 µM.
As for `CCCC(C)NC(=O)Nc1nc2nccc(-c3cccs3)n2n1` (centres unmarked) [Example 284], the “EC20 (concentration necessary for suppressing 20% of the expression level of MHC class I molecules)” value worked out at 0.19 µM.
Turning to `COc1ccc(-c2ccnc3nc(NC(=O)NC(C)CCCN(C)C(C)=O)nn23)cc1` (centres unmarked) [Example 283], the “EC20 (concentration necessary for suppressing 20% of the expression level of MHC class I molecules)” value amounted to 0.2 µM.
On to `COCCNC(=O)[C@@H](NC(=O)Nc1nc2nccc(-c3ccc(OC)cc3)n2n1)C(C)C` [Example 096], for which the “EC20 (concentration necessary for suppressing 20% of the expression level of MHC class I molecules)” value came out at 0.55 µM.
As to `COc1cccc(-c2ccnc3nc(NC(=O)NC(C)C)nn23)c1` [Example 044], the “EC20 (concentration necessary for suppressing 20% of the expression level of MHC class I molecules)” value was 0.48 µM.
As to `COc1ccc(-c2ccnc3nc(NC(=O)NC(C)CCCC(=O)N4CCOCC4)nn23)cc1` (centres unmarked) [Example 275], the “EC20 (concentration necessary for suppressing 20% of the expression level of MHC class I molecules)” value came out at 0.54 µM.
`COCCOCCOCCOc1ccc(-c2ccnc3nc(NC(=O)N[C@@H](C)c4cccc(OC)c4)nn23)cc1` [Example 238]: the “EC20 (concentration necessary for suppressing 20% of the expression level of MHC class I molecules)” value is 0.015 µM.
For `O=C(Nc1nc2nccc(-c3ccc(O)c(O)c3)n2n1)NC1CCCCC1` [Example 068], the “EC20 (concentration necessary for suppressing 20% of the expression level of MHC class I molecules)” value worked out at 0.14 µM.
As to `O=C(Nc1nc2nccc(-c3cccs3)n2n1)NC1CCCC1` [Example 028], the “EC20 (concentration necessary for suppressing 20% of the expression level of MHC class I molecules)” value amounted to 0.152 µM.
Consider `CC(CCC(C)(C)O)NC(=O)Nc1nc2nccc(-c3ccc4c(c3)OCO4)n2n1` (centres unmarked) [Example 330], for which the “EC20 (concentration necessary for suppressing 20% of the expression level of MHC class I molecules)” value is 0.21 µM.
With `COc1ccc(-c2ccnc3nc(NC(=O)NCCC(=O)Nc4ccccc4)nn23)cc1` [Example 156], the “EC20 (concentration necessary for suppressing 20% of the expression level of MHC class I molecules)” value worked out at 0.05 µM.
The value for `CCCCNC(=O)Nc1nc2nccc(-c3ccc(OC)cc3)n2n1` [Example 032] was 0.25 µM; that for `COc1ccc(-c2ccnc3nc(NC(=O)NC(C)COCC4CCOCC4)nn23)cc1` (centres unmarked) [Example 325] was 0.07 µM.
